Source: patent US7273885B2, “Inhibitors of serine proteases, particularly HCV NS3-NS4A protease” (Vertex Pharmaceuticals Incorporated, priority 2002, dated 2007)
Where two headings read alike, the source gives them in different places.

Assays:
[1] = system: Cells containing hepatitis C virus (HCV) replicon; assay: HCV replicon cell assay (Taqman RT-PCR of HCV RNA); type: cell-based
Method: HCV Replicon Cell Assay Protocol
Cells containing hepatitis C virus (HCV) replicon were maintained in DMEM containing 10% fetal bovine serum (FBS), 0.25 mg per ml of G418, with appropriate supplements (media A).
On day 1, replicon cell monolayer was treated with a trypsin:EDTA mixture, removed, and then media A was diluted into a final concentration of 100,000 cells per ml wit. 10,000 cells in 100 ul were plated into each well of a 96-well tissue culture plate, and cultured overnight in a tissue culture incubator at 37° C.
On day 2, compounds (in 100% DMSO) were serially diluted into DMEM containing 2% FBS, 0.5% DMSO, with appropriate supplements (media B). The final concentration of DMSO was maintained at 0.5% throughout the dilution series.
Media on the replicon cell monolayer was removed, and then media B containing various concentrations of compounds was added. Media B without any compound was added to other wells as no compound controls.
Cells were incubated with compound or 0.5% DMSO in media B for 48 hours in a tissue culture incubator at 37° C. At the end of the 48-hour incubation, the media was removed, and the replicon cell monolayer was washed once with PBS and stored at −80° C. prior to RNA extraction.
Culture plates with treated replicon cell monolayers were thawed, and a fixed amount of another RNA virus, such as Bovine Viral Diarrhea Virus (BVDV) was added to cells in each well. RNA extraction reagents (such as reagents from RNeasy kits) were added to the cells immediately to avoid degradation of RNA. Total RNA was extracted according the instruction of manufacturer with modification to improve extraction efficiency and consistency. Finally, total cellular RNA, including HCV replicon RNA, was eluted and stored at −80° C. until further processing.
A Taqman real-time RT-PCR quantification assay was set up with two sets of specific primers and probe. One was for HCV and the other was for BVDV. Total RNA extractants from treated HCV replicon cells was added to the PCR reactions for quantification of both HCV and BVDV RNA in the same PCR well. Experimental failure was flagged and rejected based on the level of BVDV RNA in each well. The level of HCV RNA in each well was calculated according to a standard curve run in the same PCR plate. The percentage of inhibition or decrease of HCV RNA level due to compound treatment was calculated using the DMSO or no compound control as 0% of inhibition. The IC50 (concentration at which 50% inhibition of HCV RNA level is observed) was calculated from the titration curve of any given compound.

[2] = biological target: HCV NS3-NS4A protease (tNS3 with KK4A) (Hepatitis C virus genotype 1a, UniProt P27958); assay: HCV Ki assay (HPLC microbore separation of 5AB substrate and products); type: biochemical
Method: HPLC Microbore Method for Separation of 5AB Substrate and Products
• Substrate: • NH2-Glu-Asp-Val-Val-(alpha)Abu-Cys-Ser-Met-Ser-Tyr-COOH
A stock solution of 20 mM 5AB (or concentration of your choice) was made in DMSO w/ 0.2M DTT. This was stored in aliquots at −20 C.
Buffer: 50 mM HEPES, pH 7.8; 20% glycerol; 100 mM NaCl
Total assay volume was 100 μL
The buffer, KK4A, DTT, and tNS3 were combined; distributed 78 μL each into wells of 96 well plate. This was incubated at 30 C for ˜5–10 min.
2.5 μL of appropriate concentration of test compound was dissolved in DMSO (DMSO only for control) and added to each well. This was incubated at room temperature for 15 min.
Initiated reaction by addition of 20 μL of 250 μM 5AB substrate (25 μM concentration is equivalent or slightly lower than the Km for 5AB).
Incubated for 20 min at 30 C.
Terminated reaction by addition of 25 μL of 10% TFA
Transferred 120 μL aliquots to HPLC vials
Separated SMSY product from substrate and KK4A by the following method:
Microbore Separation Method:
Instrumentation: Agilent 1100
• Degasser G1322A • Binary pump G1312A • Autosampler G1313A • Column thermostated chamber G1316A • Diode array detector G1315A Column:
Phenomenex Jupiter; 5 micron C18; 300 angstroms; 150×2 mm; P/O 00F-4053-B0 • Column thermostat: 40 C • Injection volume: 100 μL • Solvent A=HPLC grade water+0.1% TFA • Solvent B=HPLC grade acetonitrile+0.1% TFA
• Stop time: 17 min • Post-run time: 10 min.

[3] = 50% inhibition of HCV RNA level, 48-hour incubation, HCV replicon cells, read-out: IC50

Sequence of HCV NS3-NS4A protease (tNS3 with KK4A) (P27958 1027-1208): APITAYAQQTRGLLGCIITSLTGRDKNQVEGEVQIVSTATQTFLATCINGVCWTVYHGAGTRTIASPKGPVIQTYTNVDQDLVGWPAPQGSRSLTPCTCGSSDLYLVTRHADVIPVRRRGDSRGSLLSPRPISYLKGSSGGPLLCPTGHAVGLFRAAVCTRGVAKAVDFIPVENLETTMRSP

Question: Which results are given for `CCCC(NC(=O)[C@@H]1C[C@@H]2CCCC[C@@H]2N1C(=O)[C@@H](NC(=O)[C@@H](NC(=O)c1cnccn1)C1CCCCC1)C(C)C)C(=O)C(=O)NC1CC1` (stereo partly shown) [Compound 3a]?
Answer: IC50 ([1]; 48 h): 1000 to 5000 nM; Ki [2]: < 500 nM

Question: `CC(=O)c1c(C(=O)N[C@H](C(=O)N[C@H](C(=O)N2[C@H](C(=O)NC(CCC(F)(F)F)C(=O)C(=O)NC3CC3)C[C@@H]3CCCC[C@@H]32)C(C)(C)C)C2CCCCC2)[nH]c(C)c1C` (stereo partly shown) [Compound 45a] was tested. Which IC50 [1, 3] did it give?
Answer: < 500 nM

Question: What about the Ki [2] of the same compound?
Answer: < 500 nM

Question: How did the IC50 [1, 3] turn out when `CCC[C@H](NC(=O)[C@@H]1C[C@@H]2CCCC[C@@H]2N1C(=O)[C@@H](NC(=O)[C@@H](NC(=O)c1cnccn1)C1CCCCC1)C(C)(C)C)C(=O)C(=O)N[C@@H]1CCOC1` [Compound 47a] was run?
Answer: 1000 to 5000 nM

Question: What about the Ki [2] of the same compound?
Answer: 500 to 1000 nM

Question: How did the IC50 [1, 3] turn out when `CCC[C@H](NC(=O)[C@@H]1C[C@@H]2CCCC[C@@H]2N1C(=O)[C@@H](NC(=O)[C@@H](NC(=O)c1ccn[nH]1)C1CCCCC1)C(C)(C)C)C(=O)C(=O)NC1CC1` [Compound 15a] was run?
Answer: < 500 nM

Question: And the Ki [2]?
Answer: < 500 nM

Question: `CCC[C@H](NC(=O)[C@@H]1C[C@@H]2CCCC[C@@H]2N1C(=O)[C@@H](NC(=O)[C@@H](NC(=O)c1ccncc1)C1CCCCC1)C(C)(C)C)C(=O)C(=O)NC1CC1` [Compound 32a] was tested. Which IC50 [1, 3] did it give?
Answer: 1000 to 5000 nM

Question: What about the Ki [2] of the same compound?
Answer: < 500 nM

Question: How did the IC50 [1, 3] turn out when `CCC[C@H](NC(=O)[C@@H]1C[C@@H]2CCCC[C@@H]2N1C(=O)[C@@H](NC(=O)[C@@H](NC(=O)c1[nH]c(C)c(C(C)=O)c1-c1ccccc1)C1CCCCC1)C(C)(C)C)C(=O)C(=O)NC1CC1` [Compound 53a] was run?
Answer: < 500 nM

Question: And the Ki [2]?
Answer: < 500 nM

Question: What does the source list for `CCC[C@H](NC(=O)[C@@H]1C[C@@H]2CCCC[C@@H]2N1C(=O)[C@@H](NC(=O)[C@@H](NC(=O)c1cc([N+](=O)[O-])n[nH]1)C1CCCCC1)C(C)(C)C)C(=O)C(=O)NC1CC1` [Compound 14a]?
Answer: IC50 [1, 3]: 1000 to 5000 nM; Ki [2]: < 500 nM

Question: With `CCC[C@H](NC(=O)[C@@H]1C[C@@H]2CCCC[C@@H]2N1C(=O)[C@@H](NC(=O)[C@@H](NC(=O)c1ccco1)C1CCCCC1)C(C)(C)C)C(=O)C(=O)NC1CC1` [Compound 27a] as the compound, how does the IC50 [1, 3] read?
Answer: 1000 to 5000 nM

Question: And the Ki [2]?
Answer: < 500 nM

Question: What does the source list for `CCC[C@H](NC(=O)[C@@H]1C[C@@H]2CCCC[C@@H]2N1C(=O)[C@@H](NC(=O)[C@@H](NC(=O)c1[nH]c(C)c(C(C)=O)c1C#N)C1CCCCC1)C(C)(C)C)C(=O)C(=O)NC1CC1` [Compound 52a]?
Answer: IC50 [1, 3]: < 500 nM; Ki [2]: < 500 nM

Question: With `CCC[C@H](NC(=O)[C@@H]1[C@H]2CC[C@H](C2)N1C(=O)[C@@H](NC(=O)[C@@H](NC(=O)c1[nH]c(C)c(C)c1C(C)=O)C1CCCCC1)C(C)(C)C)C(=O)C(=O)NC1CC1` [Compound 65] as the compound, how does the IC50 [1, 3] read?
Answer: < 500 nM

Question: And the Ki [2]?
Answer: < 500 nM

Question: What does the source list for `CCC[C@H](NC(=O)[C@@H]1C[C@@H]2CCCC[C@@H]2N1C(=O)[C@@H](NC(=O)[C@@H](NC(=O)c1ccc2cccnc2n1)C1CCCCC1)C(C)(C)C)C(=O)C(=O)NC1CC1` [Compound 36a]?
Answer: IC50 [1, 3]: 1000 to 5000 nM; Ki [2]: < 500 nM
